Values of other authors as cited in patent publication US20220249454A1, “INHIBITORS OF MONOCARBOXYLATE TRANSPORTERS FOR CANCER IMMUNOTHERAPY” (NIROGY THERAPEUTICS, INC., priority 2021, published 2022).

How the values were obtained:
[1] = target: T1, monocarboxylate transporter 1 (MCT1) (Homo sapiens, UniProt P53985); conditions: literature value; cited from earlier work
T1 sequence (P53985 1-500): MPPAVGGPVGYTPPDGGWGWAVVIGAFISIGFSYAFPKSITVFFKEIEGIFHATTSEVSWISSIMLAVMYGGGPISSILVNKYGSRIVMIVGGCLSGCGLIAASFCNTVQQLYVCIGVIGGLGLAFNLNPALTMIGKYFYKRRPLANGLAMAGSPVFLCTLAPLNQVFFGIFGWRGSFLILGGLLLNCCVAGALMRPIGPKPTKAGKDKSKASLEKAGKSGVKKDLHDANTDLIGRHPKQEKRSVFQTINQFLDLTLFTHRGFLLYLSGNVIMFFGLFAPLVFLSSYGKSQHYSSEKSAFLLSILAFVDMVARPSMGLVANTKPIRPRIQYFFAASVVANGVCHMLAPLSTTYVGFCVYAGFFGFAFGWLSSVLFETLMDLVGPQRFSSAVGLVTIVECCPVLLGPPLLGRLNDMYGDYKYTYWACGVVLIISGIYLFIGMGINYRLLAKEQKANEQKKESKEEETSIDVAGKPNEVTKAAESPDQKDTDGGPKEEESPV
T1 sequence (P35613 140-385 partner limits assumed): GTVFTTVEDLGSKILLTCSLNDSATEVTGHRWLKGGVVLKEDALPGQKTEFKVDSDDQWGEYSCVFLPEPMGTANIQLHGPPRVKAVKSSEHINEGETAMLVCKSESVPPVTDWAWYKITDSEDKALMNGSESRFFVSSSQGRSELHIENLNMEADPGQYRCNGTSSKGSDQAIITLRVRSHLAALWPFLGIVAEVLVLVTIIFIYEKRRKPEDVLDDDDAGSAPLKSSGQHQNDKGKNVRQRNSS

[2] = target: T2, monocarboxylate transporter 4 (MCT4) (Homo sapiens, UniProt O15427); conditions: literature value; cited from earlier work
T2 sequence (O15427 2-465 limits assumed): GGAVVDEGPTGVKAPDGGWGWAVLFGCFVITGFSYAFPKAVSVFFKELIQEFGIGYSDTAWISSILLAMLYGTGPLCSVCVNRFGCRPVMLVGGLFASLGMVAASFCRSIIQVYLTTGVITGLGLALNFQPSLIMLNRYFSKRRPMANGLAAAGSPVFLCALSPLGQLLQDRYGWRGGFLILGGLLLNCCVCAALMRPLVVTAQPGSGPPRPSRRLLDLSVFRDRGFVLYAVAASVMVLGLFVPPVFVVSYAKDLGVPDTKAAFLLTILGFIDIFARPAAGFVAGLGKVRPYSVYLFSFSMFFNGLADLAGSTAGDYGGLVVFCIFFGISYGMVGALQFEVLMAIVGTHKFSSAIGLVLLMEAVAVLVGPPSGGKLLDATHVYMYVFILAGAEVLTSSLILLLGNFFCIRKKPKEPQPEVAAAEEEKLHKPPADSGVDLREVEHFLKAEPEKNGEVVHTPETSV
T2 sequence (P35613 140-385 partner limits assumed): T1 sequence (P35613 140-385 partner limits assumed)

[3] = test system: tumor cells; conditions: literature, Cell Reports 2019; cited from earlier work

In the case of `O=C(O)Cc1ccccc1Nc1c(Cl)cccc1Cl` [diclofenac], the IC50 [1] is listed as 1.4 µM, the IC50 [2] is listed as 0.14 µM and the “concentration required to see efficacy in in vitro models” value [3] is listed as 150 to 200 µM.
